Assay results published in patent publication US10925858B2, “S-nitrosoglutathione (GSNO) and GSNO reductase inhibitors for use in therapy” (MUSC FOUNDATION FOR RESEARCH DEVELOPMENT, priority 2017, dated 2021).

What was measured:
GSNOR = GSNOR (Homo sapiens, UniProt P11766); details: description of the compound; cited from earlier work
[1] = tested on: tight junction proteins (ZO-1, Occludin, Claudin-5); test: Western blotting, protein expression of tight junction proteins in isolated microvessels of diabetic mice; type: in vivo
Description: Male laca mice weighing between 28-32 g were procured from the Central Animal House, Panjab University, Chandigarh. The animals were acclimatized and were fed with standard pellet diet and water ad libitum. The experimental protocols were approved by the Institutional Ethics Committee and were conducted according to Indian National Science Academy (INSA) guidelines for the use and care of experimental animals. The animals were divided into four groups: (i) Control animals received phosphate buffered saline (PBS) throughout the study; (ii) Control+GSNO animals were administered with GSNO 100 μg/kg body weight orally, dissolved in PBS after every 24 h for 8 weeks; (iii) Diabetic animals were injected with STZ at a dose of 40 mg/kg body weight intraperitoneally for 5 days dissolved in 0.1 mol/L citrate buffer, pH 4.5 and Diabetic+GSNO mice were administered GSNO 100 μg/kg body weight orally dissolved in PBS after every 24 h for 8 weeks after the induction of diabetes. Animals were assessed weekly for development of diabetic encephalopathy in terms of memory deficits. All experimental procedures were done on mice at the end of study. The microvessels were isolated by the method described by Brooks et al., (2005). Brain tissue was homogenized in microisolation buffer (103 mM NaCl, 4.7 mM KCl, 2.5 mM CaCb, 1.2 mM KH2PO4, 1.2 mM MgSO4, 15 mM HEPES, 2.5 mM NaHCO3, 10 mM D-glucose, 1 mM sodium pyruvate and 10 g/L dextran (64,000 mol wt), pH 7.4) and equal amount of 26% (w/v) dextran was added. The sample was then centrifuged at 5600 g for 10 min and pellets obtained were resuspended in microisolation buffer. Then the suspension was filtered through 70 μm filter (BD Biosciences, Gurgaon, India). The filtered homogenates were then centrifuged at 3000 g for 10 min at 4° C. and the pellet was obtained. Protein expression of tight junction proteins and cell adhesion molecules i.e. ZO-1, occludin, Claudin-5, ICAM-1 and VCAM-1 was studied in microvessels obtained from cortex and hippocampus regions of the brain (Towbin et al., 1992). […]

[2] = microvessels of cortex and hippocampus, diabetic mice + GSNO 100 μg/kg oral 8 weeks

GSNOR, sequence (P11766 whole entry): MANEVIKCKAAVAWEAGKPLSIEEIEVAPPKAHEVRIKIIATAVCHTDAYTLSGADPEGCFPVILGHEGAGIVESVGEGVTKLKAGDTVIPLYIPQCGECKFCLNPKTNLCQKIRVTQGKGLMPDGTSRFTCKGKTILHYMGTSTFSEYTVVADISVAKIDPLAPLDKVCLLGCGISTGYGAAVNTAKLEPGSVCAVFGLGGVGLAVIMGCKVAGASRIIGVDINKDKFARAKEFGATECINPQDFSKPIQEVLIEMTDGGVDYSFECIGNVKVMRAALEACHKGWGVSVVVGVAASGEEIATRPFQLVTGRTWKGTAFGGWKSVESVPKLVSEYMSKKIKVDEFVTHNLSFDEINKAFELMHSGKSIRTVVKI

| SMILES | inhibition of GSNOR (GSNOR) | protein expression of claudin-5 ([1]; GSNO treated diabetic animals) | increase of protein expression of ZO-1 [1, 2] [%] | increase of protein expression of occludin [1, 2] [%] |
| --- | --- | --- | --- | --- |
| Cc1cc(C(N)=O)ccc1-n1c(CCC(=O)O)ccc1-c1ccc(-n2ccnc2)cc1 [N6022, reference compound] | very potent, specific, and reversible inhibitor | – | – | – |
| N[C@@H](CCC(=O)N[C@@H](CSN=O)C(=O)NCC(=O)O)C(=O)O [GSNO, S-nitrosoglutathione] | – | no significant change | ~70 | ~60 |
